In PubChem BioAssay (NCI):
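At the GI50, growth is halved. The concentration for full growth arrest is given as TGI.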

Columns and labels:
Assay in all cases: NCI tumour cell line growth inhibition, 384-well format; in the data active = GI50 below about 0.43 µM; inactive = the rest
786-0 renal = tested on: 786-0 renal
A498 renal = tested on: A498 renal
A549 NSCLC = tested on: A549 NSCLC
ACHN renal = tested on: ACHN renal
BT-549 breast = tested on: BT-549 breast
CAKI-1 renal = tested on: CAKI-1 renal
CCRF-CEM leukemia = tested on: CCRF-CEM leukemia
COLO 205 colon = tested on: COLO 205 colon
DU-145 prostate = tested on: DU-145 prostate
EKVX NSCLC = tested on: EKVX NSCLC
HCC-2998 colon = tested on: HCC-2998 colon
HCT-116 colon = tested on: HCT-116 colon
HCT-15 colon = tested on: HCT-15 colon
HL-60(TB) leukemia = tested on: HL-60(TB) leukemia
HOP-62 NSCLC = tested on: HOP-62 NSCLC
HOP-92 NSCLC = tested on: HOP-92 NSCLC
HS 578T breast = tested on: HS 578T breast
HT29 colon = tested on: HT29 colon
IGROV1 ovarian = tested on: IGROV1 ovarian
K-562 leukemia = tested on: K-562 leukemia
KM12 colon = tested on: KM12 colon
LOX IMVI melanoma = tested on: LOX IMVI melanoma
M14 melanoma = tested on: M14 melanoma
MALME-3M melanoma = tested on: MALME-3M melanoma
MDA-MB-231 breast = tested on: MDA-MB-231 breast
MDA-MB-435 melanoma = tested on: MDA-MB-435 melanoma
MDA-MB-468 breast = tested on: MDA-MB-468 breast
MOLT-4 leukemia = tested on: MOLT-4 leukemia
NCI-H226 lung = tested on: NCI-H226 lung
NCI-H23 lung = tested on: NCI-H23 lung
NCI-H322M lung = tested on: NCI-H322M lung
NCI-H460 NSCLC = tested on: NCI-H460 NSCLC
NCI-H522 lung = tested on: NCI-H522 lung
NCI/ADR-RES ovarian = tested on: NCI/ADR-RES ovarian
OVCAR-3 ovarian = tested on: OVCAR-3 ovarian
OVCAR-4 ovarian = tested on: OVCAR-4 ovarian
OVCAR-8 ovarian = tested on: OVCAR-8 ovarian
PC-3 prostate = tested on: PC-3 prostate
RPMI-8226 leukemia = tested on: RPMI-8226 leukemia
RXF 393 renal = tested on: RXF 393 renal
SF-268 CNS = tested on: SF-268 CNS
SF-295 CNS = tested on: SF-295 CNS
SF-539 CNS = tested on: SF-539 CNS
SK-MEL-28 melanoma = tested on: SK-MEL-28 melanoma
SK-MEL-5 melanoma = tested on: SK-MEL-5 melanoma
SK-OV-3 ovarian = tested on: SK-OV-3 ovarian
SN12C renal = tested on: SN12C renal
SNB-19 CNS = tested on: SNB-19 CNS
SNB-75 CNS = tested on: SNB-75 CNS
SR leukemia = tested on: SR leukemia
SW-620 colon = tested on: SW-620 colon
T-47D breast = tested on: T-47D breast
TK-10 renal = tested on: TK-10 renal
U251 glioblastoma = tested on: U251 glioblastoma
UACC-257 melanoma = tested on: UACC-257 melanoma
UACC-62 melanoma = tested on: UACC-62 melanoma
UO-31 renal = tested on: UO-31 renal

CCC(Sc1nnc2c3ccccc3n(CC)c2n1)C(=O)Nc1ccccc1OC (centres undefined)
> 100 µM: TGI (786-0 renal) | TGI (A498 renal) | TGI (A549 NSCLC) | TGI (ACHN renal) | TGI (BT-549 breast) | TGI (CCRF-CEM leukemia) | TGI (COLO 205 colon) | TGI (DU-145 prostate) | TGI (HCC-2998 colon) | TGI (HCT-116 colon) | TGI (HCT-15 colon) | TGI (HOP-62 NSCLC) | TGI (HOP-92 NSCLC) | TGI (HS 578T breast) | TGI (HT29 colon) | TGI (IGROV1 ovarian) | TGI (K-562 leukemia) | TGI (KM12 colon) | TGI (LOX IMVI melanoma) | TGI (M14 melanoma) | TGI (MALME-3M melanoma) | TGI (MDA-MB-231 breast) | TGI (MDA-MB-435 melanoma) | TGI (NCI-H226 lung) | TGI (NCI-H322M lung) | TGI (NCI-H460 NSCLC) | TGI (NCI-H522 lung) | TGI (NCI/ADR-RES ovarian) | TGI (OVCAR-3 ovarian) | TGI (OVCAR-4 ovarian) | TGI (OVCAR-8 ovarian) | TGI (PC-3 prostate) | TGI (RXF 393 renal) | TGI (SF-268 CNS) | TGI (SF-295 CNS) | TGI (SF-539 CNS) | TGI (SK-MEL-28 melanoma) | TGI (SK-MEL-5 melanoma) | TGI (SK-OV-3 ovarian) | TGI (SNB-19 CNS) | TGI (SNB-75 CNS) | TGI (SW-620 colon) | TGI (T-47D breast) | TGI (TK-10 renal) | TGI (U251 glioblastoma) | TGI (UACC-257 melanoma) | TGI (UACC-62 melanoma) | TGI (UO-31 renal)
5.44 µM: TGI (EKVX NSCLC)
5.99 µM: TGI (SR leukemia)
1.92 µM: TGI (RPMI-8226 leukemia)
79.7 µM: TGI (MOLT-4 leukemia)
0.475 µM: TGI (MDA-MB-468 breast)
1.48 µM: TGI (HL-60(TB) leukemia)
5.17 µM: TGI (SN12C renal)
2.65 µM: TGI (CAKI-1 renal)
5.23 µM: TGI (NCI-H23 lung)
active: GI50 (CAKI-1 renal) 0.384 µM | GI50 (MDA-MB-468 breast) 0.229 µM
inactive: GI50 ([…]-0 renal) > 100 µM | GI50 (A498 renal) 4.74 µM | GI50 (A549 NSCLC) 4.27 µM | GI50 (ACHN renal) > 100 µM | GI50 (BT-549 breast) > 100 µM | GI50 (CCRF-CEM leukemia) > 100 µM | GI50 (COLO 205 colon) > 100 µM | GI50 (DU-145 prostate) > 100 µM | GI50 (EKVX NSCLC) 0.547 µM | GI50 (HCC-2998 colon) > 100 µM | GI50 (HCT-116 colon) > 100 µM | GI50 (HCT-15 colon) 7.59 µM | GI50 (HL-60(TB) leukemia) 0.444 µM | GI50 (HOP-62 NSCLC) 3.56 µM | GI50 (HOP-92 NSCLC) > 100 µM | GI50 (HS 578T breast) > 100 µM | GI50 (HT29 colon) > 100 µM | GI50 (IGROV1 ovarian) > 100 µM | GI50 (K-562 leukemia) 7.45 µM | GI50 (KM12 colon) > 100 µM | GI50 (LOX IMVI melanoma) > 100 µM | GI50 (M14 melanoma) > 100 µM | GI50 (MALME-3M melanoma) > 100 µM | GI50 (MDA-MB-231 breast) > 100 µM | GI50 (MDA-MB-435 melanoma) > 100 µM | GI50 (MOLT-4 leukemia) 3.51 µM | GI50 (NCI-H226 lung) > 100 µM | GI50 (NCI-H23 lung) 1.67 µM | GI50 (NCI-H322M lung) 4.91 µM | GI50 (NCI-H460 NSCLC) > 100 µM | GI50 (NCI-H522 lung) > 100 µM | GI50 (NCI/ADR-RES ovarian) > 100 µM | GI50 (OVCAR-3 ovarian) 3.28 µM | GI50 (OVCAR-4 ovarian) > 100 µM | GI50 (OVCAR-8 ovarian) > 100 µM | GI50 (PC-3 prostate) > 100 µM | GI50 (RPMI-8226 leukemia) 0.451 µM | GI50 (RXF 393 renal) > 100 µM | GI50 (SF-268 CNS) > 100 µM | GI50 (SF-295 CNS) > 100 µM | GI50 (SF-539 CNS) > 100 µM | GI50 (SK-MEL-28 melanoma) > 100 µM | GI50 (SK-MEL-5 melanoma) 5.43 µM | GI50 (SK-OV-3 ovarian) > 100 µM | GI50 (SN12C renal) 1.18 µM | GI50 (SNB-19 CNS) > 100 µM | GI50 (SNB-75 CNS) > 100 µM | GI50 (SR leukemia) 3.3 µM | GI50 (SW-620 colon) > 100 µM | GI50 (T-47D breast) > 100 µM | GI50 (TK-10 renal) > 100 µM | GI50 (U251 glioblastoma) > 100 µM | GI50 (UACC-257 melanoma) > 100 µM | GI50 (UACC-62 melanoma) > 100 µM | GI50 (UO-31 renal) 3.74 µM
